In ChEMBL document CHEMBL1201862, “PubChem BioAssay data set” (2004):
Active and inactive are the calls of the source.

Key:
Fatty acid synthase [1] = biological target: T1, Fatty acid synthase (Homo sapiens, UniProt P49327); assay: inhibition of human FAS-TE enzyme activity – biochemical, endpoint fluorescence intensity, uHTS hits, dose response (AID 624327); type: functional;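 note: fluorescence from hydrolysis of an O-methyl fluorescein acyl ester substrate by the enzyme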
Fatty acid synthase [2] = biological target: T1, Fatty acid synthase; assay: inhibition of human FAS-TE enzyme activity – biochemical, kinetic fluorescence intensity, dose response (AID 624326); type: functional;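 note: rate of fluorescence rise from hydrolysis of a fluorogenic O-methyl fluorescein ester substrate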
[3] = biological target: Heat shock protein HSP 90-alpha (Homo sapiens, UniProt P07900); type: functional, organism-based
Beta-galactosidase = Beta-galactosidase (Escherichia coli, UniProt Q8VNN2); assay: detection-enzyme interference by beta-gal modulators – biochemical, E. coli enzyme, set 3, artefact control for CCR6 antagonist project, dose response (AID 504712); type: functional
Chain of Beta-galactosidase (Q8VNN2 whole entry): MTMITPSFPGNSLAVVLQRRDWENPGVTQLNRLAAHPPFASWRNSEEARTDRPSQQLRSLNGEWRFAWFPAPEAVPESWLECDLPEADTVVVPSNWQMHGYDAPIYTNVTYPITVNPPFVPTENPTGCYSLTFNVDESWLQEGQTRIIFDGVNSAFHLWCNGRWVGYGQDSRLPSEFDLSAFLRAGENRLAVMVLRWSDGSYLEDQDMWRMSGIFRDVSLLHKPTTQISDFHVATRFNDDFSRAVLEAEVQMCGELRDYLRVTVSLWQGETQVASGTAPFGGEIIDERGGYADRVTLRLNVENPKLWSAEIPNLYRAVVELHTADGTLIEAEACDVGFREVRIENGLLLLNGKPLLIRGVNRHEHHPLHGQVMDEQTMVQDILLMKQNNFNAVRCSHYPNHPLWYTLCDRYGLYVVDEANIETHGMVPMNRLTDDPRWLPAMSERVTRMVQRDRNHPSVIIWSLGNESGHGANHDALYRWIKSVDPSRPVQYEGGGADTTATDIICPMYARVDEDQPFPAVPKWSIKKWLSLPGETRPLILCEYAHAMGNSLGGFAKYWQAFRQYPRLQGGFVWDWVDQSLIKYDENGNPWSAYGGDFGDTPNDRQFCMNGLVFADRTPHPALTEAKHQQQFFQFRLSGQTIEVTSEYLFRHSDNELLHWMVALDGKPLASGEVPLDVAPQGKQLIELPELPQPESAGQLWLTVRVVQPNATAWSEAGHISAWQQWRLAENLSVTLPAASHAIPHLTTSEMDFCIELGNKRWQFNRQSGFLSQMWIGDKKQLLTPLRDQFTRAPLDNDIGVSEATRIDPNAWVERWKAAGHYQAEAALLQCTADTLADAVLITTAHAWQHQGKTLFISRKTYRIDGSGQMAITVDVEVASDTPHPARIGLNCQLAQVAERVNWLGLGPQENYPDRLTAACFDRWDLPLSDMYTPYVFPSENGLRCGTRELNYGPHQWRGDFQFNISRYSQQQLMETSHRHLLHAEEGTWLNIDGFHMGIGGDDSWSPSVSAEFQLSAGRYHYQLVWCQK

[4] = HEK-293T cell viability reduction – luminescence, B-cell screen hits, cytotoxicity control for BCR NF-kB inhibitor project, dose response (AID 489021); type: functional, cell-based;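 note: HEK-293T cells carrying an NF-kB luciferase reporter; cells exposed to compound for about 14 hours before viability readout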
Escherichia coli [5] = assay: microbe, parasite or virus in culture
[6] = Luminescence Cell-Based Dose Response HTS to Identify Inhibitors of 5'UTR Stem-Loop Driven Prion Protein mRNA Translation in H4 Neuroglioblastoma Cells. [Related pubchem assays: 1827 (Project Summary), 1813 (Primary HTS)]; type: functional
[7] = luciferase reporter signal suppression in cells – H4 neuroglioma cells, luminescence, dose response (AID 1990); type: functional, cell-based
[8] = alpha-synuclein stem-loop luciferase translation blockers – H4 neuroglioma cells, luminescence, confirmation (AID 1988); type: functional, cell-based
[9] = biological target: T2, Ubiquitin-conjugating enzyme E2 N (Homo sapiens, UniProt P61088); type: functional
T2 sequence (P61088 whole entry): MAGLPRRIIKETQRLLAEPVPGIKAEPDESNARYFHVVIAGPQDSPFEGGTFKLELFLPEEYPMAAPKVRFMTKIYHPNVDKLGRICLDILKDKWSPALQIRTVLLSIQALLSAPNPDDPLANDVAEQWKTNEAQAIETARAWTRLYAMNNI

[10] = biological target: T2, Ubiquitin-conjugating enzyme E2 N; type: functional; remark: listed apart in the source
Bcl-2-related protein A1 = biological target: T3, Bcl-2-related protein A1 (Mus musculus, UniProt Q07440); type: functional;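 note: confirmatory dose–response counterscreen on Bfl-1, used to check hits from a UBC13 polyubiquitin inhibitor campaign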
T3 sequence (Q07440 whole entry): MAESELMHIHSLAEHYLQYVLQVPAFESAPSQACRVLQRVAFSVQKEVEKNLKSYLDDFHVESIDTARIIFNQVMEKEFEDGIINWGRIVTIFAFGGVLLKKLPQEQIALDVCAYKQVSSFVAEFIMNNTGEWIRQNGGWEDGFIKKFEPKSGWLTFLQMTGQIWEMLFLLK

Escherichia coli [11] = assay: microbe, parasite or virus in culture; remark: listed apart in the source
[12] = biological target: G-protein coupled receptor 55 (Homo sapiens, UniProt Q9Y2T6); assay: inhibition of LPI-stimulated GPR55 beta-arrestin translocation – imaging, U2OS, beta-arrestin-GFP, LPI agonist, primary screen (AID 2013); type: functional;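 note: antagonist potency measured as reduced agonist-driven arrestin aggregation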
Chain of G-protein coupled receptor 55 (Q9Y2T6 whole entry): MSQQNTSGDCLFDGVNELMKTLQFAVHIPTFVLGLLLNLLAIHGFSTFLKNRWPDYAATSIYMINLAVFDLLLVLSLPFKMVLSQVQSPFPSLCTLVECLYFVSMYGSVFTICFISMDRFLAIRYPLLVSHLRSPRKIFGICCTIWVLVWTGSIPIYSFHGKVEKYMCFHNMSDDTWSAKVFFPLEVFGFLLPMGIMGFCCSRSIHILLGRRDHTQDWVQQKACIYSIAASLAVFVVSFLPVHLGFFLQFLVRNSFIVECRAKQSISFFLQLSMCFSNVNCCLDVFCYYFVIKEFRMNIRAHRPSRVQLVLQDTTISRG

H9c2 = assay: cells; type: functional, cell-based; details: Rattus norvegicus, H9c2, Myocardium;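 note: confirmatory concentration-response retest of ultra-high-throughput screening hits for modulation of myocardial damage; cell death induced by hydrogen peroxide oxidative stress; compound pretreatment for 60 min then peroxide exposure for 2 h; potency is for protecting the cells against peroxide damage rather than for killing them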
Tumor necrosis factor = Tumor necrosis factor (Homo sapiens, UniProt P01375); assay: analog potency on TNFa NF-kB signaling – cell-based, revised, SAR follow-up (AID 2337); type: functional
Chain of Tumor necrosis factor (P01375 whole entry): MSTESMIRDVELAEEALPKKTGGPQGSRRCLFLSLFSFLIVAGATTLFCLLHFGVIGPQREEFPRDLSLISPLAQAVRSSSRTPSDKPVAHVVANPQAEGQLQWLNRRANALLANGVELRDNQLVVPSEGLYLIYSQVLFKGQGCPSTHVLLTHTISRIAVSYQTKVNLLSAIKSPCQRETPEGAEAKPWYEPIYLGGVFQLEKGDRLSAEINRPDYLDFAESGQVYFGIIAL

Interleukin-8 [13] = biological target: T4, Interleukin-8 (Homo sapiens, UniProt P10145); assay: SAR analysis of Tumor necrosis factor alpha (TNF-alpha) induced IL-8 secretion in MCF-7/NOD1 cells - Set 2. [Related pubchem assays (depositor defined):AID1575, AID2250, AID2260]; type: functional, cell-based
T4 sequence (P10145 whole entry): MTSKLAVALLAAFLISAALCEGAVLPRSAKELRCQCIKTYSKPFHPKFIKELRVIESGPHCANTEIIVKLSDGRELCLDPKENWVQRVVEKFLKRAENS

[14] = biological target: T5, Nucleotide-binding oligomerization domain-containing protein 1 (Homo sapiens, UniProt Q9Y239); assay: blockers of NOD1 pathway activity – revised, SAR follow-up (AID 2333); type: functional
T5 sequence (Q9Y239 whole entry): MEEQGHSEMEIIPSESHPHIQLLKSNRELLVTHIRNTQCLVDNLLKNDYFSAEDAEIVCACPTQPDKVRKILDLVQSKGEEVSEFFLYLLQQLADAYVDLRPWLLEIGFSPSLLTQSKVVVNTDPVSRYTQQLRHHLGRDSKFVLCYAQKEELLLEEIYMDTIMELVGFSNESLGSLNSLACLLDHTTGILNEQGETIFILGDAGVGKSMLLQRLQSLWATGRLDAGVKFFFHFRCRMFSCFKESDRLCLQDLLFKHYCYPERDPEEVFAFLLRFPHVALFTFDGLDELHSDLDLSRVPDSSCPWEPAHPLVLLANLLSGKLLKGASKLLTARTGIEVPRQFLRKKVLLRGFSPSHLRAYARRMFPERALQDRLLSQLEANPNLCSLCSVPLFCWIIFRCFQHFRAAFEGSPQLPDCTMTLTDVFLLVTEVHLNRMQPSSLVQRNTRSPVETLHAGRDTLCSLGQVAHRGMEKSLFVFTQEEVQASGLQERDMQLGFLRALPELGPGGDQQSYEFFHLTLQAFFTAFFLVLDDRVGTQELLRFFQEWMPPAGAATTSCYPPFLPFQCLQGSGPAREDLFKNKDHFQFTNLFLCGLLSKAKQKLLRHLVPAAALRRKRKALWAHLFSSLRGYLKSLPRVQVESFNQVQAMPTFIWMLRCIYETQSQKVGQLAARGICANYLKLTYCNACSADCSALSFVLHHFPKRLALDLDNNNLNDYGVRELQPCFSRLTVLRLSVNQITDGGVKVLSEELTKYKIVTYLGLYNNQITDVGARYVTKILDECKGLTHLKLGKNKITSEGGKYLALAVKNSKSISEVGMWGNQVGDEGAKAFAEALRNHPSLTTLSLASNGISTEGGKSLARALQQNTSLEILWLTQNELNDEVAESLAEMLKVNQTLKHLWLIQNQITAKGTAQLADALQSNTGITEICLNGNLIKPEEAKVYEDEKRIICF

HEK293 = assay: cells; details: Homo sapiens;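 note: cells exposed to compound for 14 hours overnight before viability readout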
Interleukin-8 [15] = biological target: T4, Interleukin-8; assay: SAR analysis of GM-Tri-DAP induced IL-8 secretion in MCF-7/NOD1 cells - Set 2. [Related pubchem assays (depositor defined):AID1575, AID1578, AID2333]; type: functional, cell-based
Hexokinase = biological target: T6, Hexokinase (Trypanosoma brucei, UniProt Q38C41); assay: Confirmation assay for inhibitors of Trypanosoma brucei hexokinase 1-Analogue-first series. [Related pubchem assays (depositor defined):AID1430, AID1632, AID2516, AID2560, AID2579, AID2600, AID449725, AID492951]; type: functional
T6 sequence (Q38C41 whole entry): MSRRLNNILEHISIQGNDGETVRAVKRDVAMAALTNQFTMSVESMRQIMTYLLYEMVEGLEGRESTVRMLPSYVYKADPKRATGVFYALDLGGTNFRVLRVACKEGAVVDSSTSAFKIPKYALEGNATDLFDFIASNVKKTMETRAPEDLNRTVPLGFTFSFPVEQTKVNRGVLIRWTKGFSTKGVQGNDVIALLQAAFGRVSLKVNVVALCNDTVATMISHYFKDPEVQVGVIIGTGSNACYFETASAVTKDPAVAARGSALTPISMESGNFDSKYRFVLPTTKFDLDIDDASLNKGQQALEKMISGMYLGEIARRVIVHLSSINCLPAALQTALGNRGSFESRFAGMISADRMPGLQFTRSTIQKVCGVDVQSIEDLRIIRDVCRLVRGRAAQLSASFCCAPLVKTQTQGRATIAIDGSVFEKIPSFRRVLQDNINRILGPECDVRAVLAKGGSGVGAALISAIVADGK

Streptokinase A = biological target: T7, Streptokinase A (Streptococcus pyogenes serotype M1, UniProt P10520); assay: viability-normalized secreted streptokinase activity reduction – plasminogen activation absorbance, OD405, dose response (AID 1914); type: functional, Streptococcus pyogenes M1 GAS;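 note: secreted streptokinase activity via plasminogen activation per viability signal from cell pellet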
T7 sequence (P10520 whole entry): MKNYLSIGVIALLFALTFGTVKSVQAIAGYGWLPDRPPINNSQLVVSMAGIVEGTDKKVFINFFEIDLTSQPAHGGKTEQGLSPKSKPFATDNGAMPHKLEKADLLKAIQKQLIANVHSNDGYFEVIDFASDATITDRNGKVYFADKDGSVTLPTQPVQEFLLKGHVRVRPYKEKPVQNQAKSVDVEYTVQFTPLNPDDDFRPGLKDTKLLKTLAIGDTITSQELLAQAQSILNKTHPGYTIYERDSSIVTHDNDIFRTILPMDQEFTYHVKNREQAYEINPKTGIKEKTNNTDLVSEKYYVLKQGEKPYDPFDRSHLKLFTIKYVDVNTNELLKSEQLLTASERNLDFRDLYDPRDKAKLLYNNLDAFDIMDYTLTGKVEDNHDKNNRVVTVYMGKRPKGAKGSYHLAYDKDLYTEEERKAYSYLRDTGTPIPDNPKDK

[16] = test system: Streptococcus sp. 'group A'; assay: Streptococcus pyogenes SK(-)GAS viability under kanamycin – luminescence, BacTiterGlo, confirmation, counter-screen for streptokinase expression inhibitor project, dose response (AID 1900); type: functional, organism-based
Streptococcus = assay: GAS UMAA2166 growth inhibition – luminescence, BacTiterGlo, counter-screen for streptokinase expression inhibitor project, dose response (AID 1915); type: functional, organism-based;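 note: potency for reduction of bacterial viability or growth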
[17] = biological target: Glyceraldehyde-3-phosphate dehydrogenase (Homo sapiens, UniProt P04406)
Chain of Glyceraldehyde-3-phosphate dehydrogenase (P04406 whole entry): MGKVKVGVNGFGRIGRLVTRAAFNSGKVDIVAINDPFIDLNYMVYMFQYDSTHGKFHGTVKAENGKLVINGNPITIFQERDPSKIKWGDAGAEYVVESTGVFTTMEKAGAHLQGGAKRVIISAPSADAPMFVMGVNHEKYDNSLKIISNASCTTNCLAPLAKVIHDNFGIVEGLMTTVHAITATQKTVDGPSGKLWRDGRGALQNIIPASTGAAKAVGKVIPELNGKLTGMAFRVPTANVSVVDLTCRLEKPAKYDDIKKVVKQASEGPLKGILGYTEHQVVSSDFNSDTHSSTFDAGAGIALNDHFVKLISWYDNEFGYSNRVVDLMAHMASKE

[18] = biological target: Alkaline phosphatase, placental type (Homo sapiens, UniProt P05187); assay: human placental alkaline phosphatase inhibition – biochemical, luminescence, confirmation (AID 1512); type: functional
Chain of Alkaline phosphatase, placental type (P05187 whole entry): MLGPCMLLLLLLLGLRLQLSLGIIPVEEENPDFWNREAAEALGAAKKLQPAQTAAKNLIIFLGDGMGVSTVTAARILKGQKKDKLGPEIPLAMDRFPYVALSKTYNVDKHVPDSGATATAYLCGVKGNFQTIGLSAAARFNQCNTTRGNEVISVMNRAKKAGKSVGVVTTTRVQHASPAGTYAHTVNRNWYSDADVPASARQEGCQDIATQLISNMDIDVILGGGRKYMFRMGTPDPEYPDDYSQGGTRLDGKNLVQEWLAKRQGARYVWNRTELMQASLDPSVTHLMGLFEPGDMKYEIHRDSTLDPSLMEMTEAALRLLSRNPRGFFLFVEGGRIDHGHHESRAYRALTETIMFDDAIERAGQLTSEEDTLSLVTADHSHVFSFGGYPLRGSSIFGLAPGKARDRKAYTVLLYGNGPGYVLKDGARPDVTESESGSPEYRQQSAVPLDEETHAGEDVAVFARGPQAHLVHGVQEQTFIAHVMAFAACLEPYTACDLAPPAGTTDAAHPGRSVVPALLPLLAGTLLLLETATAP

T1 sequence (P49327 whole entry): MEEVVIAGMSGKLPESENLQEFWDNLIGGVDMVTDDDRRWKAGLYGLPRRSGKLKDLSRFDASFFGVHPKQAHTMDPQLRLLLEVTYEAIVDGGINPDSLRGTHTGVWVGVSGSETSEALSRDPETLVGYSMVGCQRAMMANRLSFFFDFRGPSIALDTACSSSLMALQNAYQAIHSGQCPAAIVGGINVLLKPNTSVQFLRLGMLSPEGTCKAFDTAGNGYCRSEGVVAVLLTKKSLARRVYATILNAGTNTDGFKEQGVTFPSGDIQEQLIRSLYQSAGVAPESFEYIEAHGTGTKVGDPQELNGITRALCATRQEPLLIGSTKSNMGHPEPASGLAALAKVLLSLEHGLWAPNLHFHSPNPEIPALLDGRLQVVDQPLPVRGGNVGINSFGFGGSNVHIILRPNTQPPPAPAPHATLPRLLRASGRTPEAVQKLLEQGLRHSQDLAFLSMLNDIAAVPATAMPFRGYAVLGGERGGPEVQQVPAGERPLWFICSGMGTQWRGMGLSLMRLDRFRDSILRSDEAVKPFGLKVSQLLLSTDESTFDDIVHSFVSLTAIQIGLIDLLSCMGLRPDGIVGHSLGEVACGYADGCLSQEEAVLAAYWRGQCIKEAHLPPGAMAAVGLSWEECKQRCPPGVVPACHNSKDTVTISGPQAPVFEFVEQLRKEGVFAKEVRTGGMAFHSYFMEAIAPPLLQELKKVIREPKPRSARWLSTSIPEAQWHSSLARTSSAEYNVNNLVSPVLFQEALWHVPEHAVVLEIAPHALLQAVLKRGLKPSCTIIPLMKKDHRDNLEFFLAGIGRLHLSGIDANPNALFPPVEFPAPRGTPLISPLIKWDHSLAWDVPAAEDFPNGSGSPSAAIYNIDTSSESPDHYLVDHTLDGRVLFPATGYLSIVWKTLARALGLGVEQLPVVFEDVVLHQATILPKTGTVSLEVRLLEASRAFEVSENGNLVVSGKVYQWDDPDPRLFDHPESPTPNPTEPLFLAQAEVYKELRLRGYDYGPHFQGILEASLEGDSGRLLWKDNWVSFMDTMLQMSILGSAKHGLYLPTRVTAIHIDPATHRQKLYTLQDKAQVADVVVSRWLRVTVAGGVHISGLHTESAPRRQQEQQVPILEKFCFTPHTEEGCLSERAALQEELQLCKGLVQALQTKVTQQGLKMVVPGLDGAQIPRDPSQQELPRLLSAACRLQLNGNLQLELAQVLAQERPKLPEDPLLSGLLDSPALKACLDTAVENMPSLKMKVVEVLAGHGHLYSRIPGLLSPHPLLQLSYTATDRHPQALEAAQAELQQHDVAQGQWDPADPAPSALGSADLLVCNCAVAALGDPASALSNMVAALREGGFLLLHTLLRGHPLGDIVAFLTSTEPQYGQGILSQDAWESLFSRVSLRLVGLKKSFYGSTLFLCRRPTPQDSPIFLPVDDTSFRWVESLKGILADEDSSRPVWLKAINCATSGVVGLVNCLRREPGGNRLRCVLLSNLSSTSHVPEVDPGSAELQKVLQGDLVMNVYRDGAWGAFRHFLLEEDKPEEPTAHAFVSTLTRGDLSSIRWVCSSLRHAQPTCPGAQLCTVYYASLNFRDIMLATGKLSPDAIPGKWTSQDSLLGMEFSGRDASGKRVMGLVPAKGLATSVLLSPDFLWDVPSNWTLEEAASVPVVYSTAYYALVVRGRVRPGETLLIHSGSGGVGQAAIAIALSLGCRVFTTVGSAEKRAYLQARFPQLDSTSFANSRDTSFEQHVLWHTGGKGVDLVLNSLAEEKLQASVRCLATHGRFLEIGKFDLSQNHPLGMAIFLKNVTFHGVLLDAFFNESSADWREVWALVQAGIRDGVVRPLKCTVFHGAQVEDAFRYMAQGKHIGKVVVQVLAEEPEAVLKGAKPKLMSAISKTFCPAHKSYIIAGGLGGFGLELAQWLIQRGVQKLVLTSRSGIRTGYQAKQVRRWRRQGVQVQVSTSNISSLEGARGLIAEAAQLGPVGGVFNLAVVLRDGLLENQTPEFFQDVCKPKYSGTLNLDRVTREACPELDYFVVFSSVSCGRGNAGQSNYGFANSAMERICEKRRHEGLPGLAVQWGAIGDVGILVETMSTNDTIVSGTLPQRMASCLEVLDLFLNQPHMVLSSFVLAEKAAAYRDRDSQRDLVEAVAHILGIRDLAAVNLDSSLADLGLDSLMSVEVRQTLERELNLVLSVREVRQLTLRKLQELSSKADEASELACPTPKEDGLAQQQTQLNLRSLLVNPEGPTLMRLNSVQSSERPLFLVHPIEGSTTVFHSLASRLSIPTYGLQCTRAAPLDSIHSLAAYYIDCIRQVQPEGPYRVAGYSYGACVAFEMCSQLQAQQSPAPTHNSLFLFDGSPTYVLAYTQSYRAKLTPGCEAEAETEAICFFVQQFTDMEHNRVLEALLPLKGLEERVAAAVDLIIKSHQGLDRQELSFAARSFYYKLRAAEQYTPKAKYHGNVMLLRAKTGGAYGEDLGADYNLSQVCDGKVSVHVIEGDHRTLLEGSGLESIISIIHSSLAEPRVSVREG

In the case of `N#C/C(=C\c1cccc([N+](=O)[O-])c1)C(=O)NCc1ccc(Cl)cc1`, the IC50 (Fatty acid synthase [1]) is reported as 4.48 µM (active), the IC50 (Fatty acid synthase [2]) is reported as 4.11 µM (active) and the AC50 [3] is reported as 1.93 µM (active). The IC50 (Beta-galactosidase) was > 66.6 µM (inactive).
In the case of `COc1ccc(N(CC(=O)N2CCN(c3ccc(Cl)cc3)CC2)S(=O)(=O)c2c(C)n[nH]c2C)cc1`, the IC50 [4] is reported as > 80 µM (inactive).
In the case of `Cc1ccnc(SCCn2c(N3CC(C)CC(C)C3)nc3c2c(=O)n(C)c(=O)n3C)n1` (stereo not drawn), the AC50 (Escherichia coli [5]) is reported as 35.1 µM (active), the EC50 [6] is reported as > 120 µM (not active) and the EC50 [7] is reported as 39.1 µM (active). The EC50 [8] was > 120 µM (not active).
In the case of `O=[N+]([O-])c1ccc2[nH]c(O)c(N=NC(S)=NCC3CCCO3)c2c1` (stereo not drawn), the IC50 [9] is reported as 0.664 µM (active), the IC50 [10] is reported as 15.9 µM (active) and the IC50 (Bcl-2-related protein A1) is reported as > 20 µM (inactive).
In the case of `O=C1CC(c2cc(-c3ccccc3)no2)C1`, the AC50 (Escherichia coli [11]) is reported as 34.5 µM (active).
For `O=C(c1cccc(Oc2ccc([N+](=O)[O-])cc2Cl)c1)N1CCCCC1`, the IC50 [12] was 5.09 µM (active).
With `COc1ccc(S(=O)(=O)N2CCCCCC2)cc1NC(=O)c1c2c(nc3ccccc13)CCN(Cc1ccccc1)C2` the AC50 (Escherichia coli [5]) was 52 µM (active) and the AC50 (Escherichia coli [11]) was 26 µM (active).
In the case of `Cc1nn(-c2nc3ccccc3[nH]2)c(N)c1-c1ccccc1`, the IC50 (Beta-galactosidase) is reported as > 66.6 µM (inactive).
In the case of `CC(C)(C)c1cc(NS(=O)(=O)c2ccc3c(c2)OCCO3)on1`, the AC50 (Escherichia coli [5]) is reported as 31 µM (active).
With `Cc1ccc(S(=O)(=O)n2cc(C=O)c3ccccc32)cc1` the IC50 [9] was 11 µM (active), the IC50 [10] was 9.59 µM (active) and the IC50 (Bcl-2-related protein A1) was > 20 µM (inactive).
For `COc1cc(NC(=O)c2ccco2)c(OC)cc1NC(=O)c1cc(OC)c(OC)c(OC)c1`, the IC50 (H9c2) was 14.3 µM (active) and the IC50 [4] was 41.3 µM (inactive).
For `Cc1ccc(S(=O)(=O)n2c(=S)[nH]c3cc(C)ccc32)cc1`, the IC50 (Tumor necrosis factor) was > 20 µM (inactive), the IC50 (Interleukin-8 [13]) was > 25 µM (inactive) and the IC50 [14] was > 20 µM (inactive). The IC50 (HEK293) was > 20 µM (inactive) and the IC50 (Interleukin-8 [15]) was > 25 µM (inactive).
With `Fc1ccc(CSc2ncnc3scc(-c4ccccc4)c23)cc1` the IC50 [12] was 2.16 µM (active).
With `Cc1csc(NC(=O)/C=C/c2ccc3c(c2)OCO3)n1` the IC50 [4] was > 80 µM (inactive).
For `O=C(Cn1sc2ccccc2c1=O)Nc1cccc(Br)c1`, the IC50 (Hexokinase) was > 25 µM (inactive).
For `O=C(Cn1sc2ccccc2c1=O)Nc1ccccc1Cl`, the IC50 (Hexokinase) was 4.16 µM (active).
In the case of `COc1ccc(NC(=O)Nc2ccccc2C(=O)O)cc1`, the IC50 (Hexokinase) is reported as > 25 µM (inactive).
For `NC(=O)c1ncn([C@@H]2O[C@H](CNCc3cccn3-c3ccncc3)[C@@H](O)[C@H]2O)n1`, the AC50 (Escherichia coli [11]) was 24 µM (active).
In the case of `CC1=CC(C)(C)n2c(O)c(/N=N/C(=N)S)c3cccc1c32`, the IC50 [9] is reported as 4.79 µM (active), the IC50 [10] is reported as 6.09 µM (active) and the IC50 (Bcl-2-related protein A1) is reported as > 20 µM (inactive).
With `Cc1cccc(/C=N/NC(=O)c2ccccc2OCc2cccc(Br)c2)n1` the EC50 (Streptokinase A) was 16.1 µM (active), the EC50 [16] was 11 µM (active) and the EC50 (Streptococcus) was 21.5 µM (active). The IC50 (Beta-galactosidase) was > 66.6 µM (inactive).
For `CCN1CCN(C(=O)c2cc(-c3ccc(Cl)cc3Cl)n[nH]2)CC1`, the IC50 [17] was > 100 µM (not active) and the IC50 [18] was > 100 µM (inactive).
